Experimental data from patent US20250206761A1, “HALOINDOLE MACROCYCLIC COMPOUNDS FOR THE TREATMENT OF CANCER” (Hoffmann-La Roche Inc., priority 2022, published 2025).

Columns and labels:
[1] = test system: phosphorylation of ERK, KRAS G12V in SW620; assay: pERK inhibition assay, KRAS G12V; format: cell-based, human; conditions: Homo sapiens, SW-620, SW620, 4 hours
Outline: (§1)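 4 h compound treatment (0.5% DMSO final) of overnight-plated cells; formaldehyde fix, cold MeOH permeabilization, BSA block. Anti-pERK primary overnight at 4 °C, HRP anti-rabbit secondary, TMB readout at OD450. IC50 via 4-parameter sigmoidal model.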

[2] = biological target: KRAS G12D binding to BRAF (Homo sapiens (Human), UniProt P01116+P62937, G12D); assay: KRAS-BRAF with CYPA (500 nM) interaction assay (TR-FRET), G12D; format: biochemical
KRAS G12C-BRAF complex = KRAS G12C-BRAF complex (Homo sapiens (Human), UniProt P01116+P62937, G12C); assay: KRAS-BRAF with CYPA (500 nM) interaction assay (TR-FRET), G12C; format: biochemical
[3] = GSH reaction rates (inherent GSH reactivity); format: in vitro ADME; parameters: half-life: dose or concentration left out as unconfirmed; conditions: for half-life: buffer, pH 7.4
Experimental: For inherent GSH reactivity determination, compounds […] were incubated at 37° C. with and without 5 mM GSH for 0, 0.5, 1, 2, 4 and 6 h in 100 mM potassium phosphate buffer at pH 7.4. At the end of the designated time points, samples were quenched with acetonitrile containing 10 mM N-ethylmaleimide and an internal standard. Quenched samples were centrifuged, and supernatants were analyzed by LC-MS/MS for compound quantification.

[4] = test system: cryopreserved suspension hepatocytes from human; assay: Human hepatocyte stability assay; format: in vitro ADME; conditions: for Clearance Category: human hepatocytes; for CL_hep (Human): human hepatocytes 1×10^6 cells/mL, 37° C.
Experimental: The hepatocyte stability assay measures the rate of disappearance of a compound from incubations with cryopreserved suspension hepatocytes from human. Positive controls, including Midazolam, Raloxifene and Dextromethorphan, are included in every experiment. Incubations consist of […] tested compound and suspension of human hepatocytes (1×10^6 cells/mL) in supplemented Williams' E Medium with 10% FBS and 0.5% Penicillin-streptomycin. The hepatocyte suspension was incubated with intermittent shaking 900 rpm at 37° C., in a 5% CO2 incubator. The reaction was stopped by adding methanol containing internal standard (2 μM Tolbutamide) at 2, 10, 20, 40, 60 and 120 minutes after compound addition, depletion of the parent compound was monitored by LC-MS/MS analysis.

[5] = test system: phosphorylation of ERK, KRAS G12D in AGS cells; assay: pERK inhibition assay, KRAS G12D; format: cell-based, human; conditions: Homo sapiens, 4 hours
Outline: as §1

Chain of KRAS G12D binding to BRAF (P01116-2 other isoform, or with tags, fused parts or gaps G12D): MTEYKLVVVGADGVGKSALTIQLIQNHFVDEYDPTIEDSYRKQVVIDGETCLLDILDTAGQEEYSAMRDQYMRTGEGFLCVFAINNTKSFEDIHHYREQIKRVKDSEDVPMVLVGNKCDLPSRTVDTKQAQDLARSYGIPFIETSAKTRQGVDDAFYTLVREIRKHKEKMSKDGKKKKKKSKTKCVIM
Chain of KRAS G12D binding to BRAF (P62937 whole entry): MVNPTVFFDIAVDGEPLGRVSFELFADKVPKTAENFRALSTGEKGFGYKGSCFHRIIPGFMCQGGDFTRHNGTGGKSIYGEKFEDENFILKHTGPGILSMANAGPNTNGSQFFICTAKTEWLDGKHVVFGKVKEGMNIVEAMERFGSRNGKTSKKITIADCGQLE
Chain of KRAS G12C-BRAF complex (P01116-2 other isoform, or with tags, fused parts or gaps G12C): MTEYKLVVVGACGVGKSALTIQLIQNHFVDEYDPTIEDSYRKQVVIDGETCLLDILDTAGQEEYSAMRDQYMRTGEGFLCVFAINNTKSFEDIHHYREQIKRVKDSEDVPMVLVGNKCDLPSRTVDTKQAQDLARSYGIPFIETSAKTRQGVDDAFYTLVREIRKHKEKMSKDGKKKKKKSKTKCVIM
Chain of KRAS G12C-BRAF complex (P62937 whole entry): as the sequence (P62937 whole entry) above

Row | Compound | IC50 [1] [nM] | IC50 [2] [nM] | IC50 (KRAS G12C-BRAF complex) [nM] | IC50 [5] [nM] | conjugation with GSH [3] | half-life [3] [h] | T1/2(hour) in GSH ([3]; 5 mM GSH, 37° C., 100 mM potassium phosphate buffer pH 7.4, up to 6 h) | Remaining at 6 hr in GSH (%) ([3]; 5 mM GSH, 37° C., pH 7.4, 6 hr) | Clearance Category [4] | CL_hep (Human) [4] [mL/min/kg]
1 | CCn1c(-c2cc(N3CCN(CC(F)(F)F)CC3)cnc2[C@H](C)OC)c2c3cc(c(F)cc31)-c1csc(n1)C[C@H](NC(=O)[C@H](C(C)C)N1CCC3(CN(C(=O)[C@H](F)Cl)C3)C1=O)C(=O)N1CCC[C@H](N1)C(=O)OCC(C)(C)C2 (atropisomer, axis not shown; (M)) [Example 37, (2S)-2-[2-[(2R)-2-chloro-2-fluoro-acetyl]-5-oxo-2,6-diazaspiro[3.4]octan-6-yl]-N-[(7S,13S)-21-ethyl-24-fluoro-(20M)-20-[2-[(1S)-1-methoxyethyl]-5-[4-(2,2,2-trifluoroethyl)piperazin-1-yl]-3-pyridyl]-17,17-dimethyl-8,14-dioxo-15-oxa-4-thia-9,21,27,28-tetrazapentacyclo[17.5.2.1^2,5.1^9,13.0^22,26]octacosa-1(25),2,5(28),19,22(26),23-hexaen-7-yl]-3-methyl-butanamide] | 21 | 964 | 39 |  |  |  | stable (If % depletion after 6 hour incubation is less than 20%, compounds were reported as stable) | 100 | low (CL_hep (mL/min/kg)<6.96 is low clearance) | 2.4
2 | CCn1c(-c2cc(N3CCOCC3)cnc2[C@H](C)OC)c2c3cc(c(F)cc31)-c1csc(n1)C[C@H](NC(=O)[C@H](C(C)C)N(C)C(=O)[C@H]1CCN(C(=O)[C@H](F)Cl)C1)C(=O)N1CCC[C@H](N1)C(=O)OCC(C)(C)C2 (atropisomer, axis not shown; (M)) [Example 55, (3S)-1-[(2R)-2-chloro-2-fluoro-acetyl]-N-[(1S)-1-[[(7S,13S)-21-ethyl-24-fluoro-(20M)-20-[2-[(1S)-1-methoxyethyl]-5-morpholino-3-pyridyl]-17,17-dimethyl-8,14-dioxo-15-oxa-4-thia-9,21,27,28-tetrazapentacyclo[17.5.2.1^2,5.1^9,13.0^22,26]octacosa-1(25),2,5(28),19,22(26),23-hexaen-7-yl]carbamoyl]-2-methyl-propyl]-N-methyl-pyrrolidine-3-carboxamide] | 75 | > 10000 | 40 | 106 |  |  |  |  |  | 
3 | CO[C@@H](C)c1ncc(N2CCN(C)CC2)cc1-c1c2c3cc(c(F)cc3n1CC(F)(F)F)-c1csc(n1)C[C@H](NC(=O)[C@H](C(C)C)N1CCC[C@@]3(CCN(C(=O)[C@H](F)Cl)C3)C1=O)C(=O)N1CCC[C@H](N1)C(=O)OCC(C)(C)C2 (single isomer, unassigned) [Example 16] | 15 | > 10000 | 100 | 19 |  |  |  |  |  | 
4 | CO[C@@H](C)c1ncc(N2CCN(C)CC2)cc1-c1c2c3cc(c(F)cc3n1CC(F)(F)F)-c1csc(n1)C[C@H](NC(=O)[C@H](C(C)C)N1CCC[C@]3(CCN(C(=O)[C@H](F)Cl)C3)C1=O)C(=O)N1CCC[C@H](N1)C(=O)OCC(C)(C)C2 (single isomer, unassigned) [Example 18] | 18 | 1660 | 71 | 26 |  |  |  |  |  | 

Now from value to molecule, other results behind:

Row | IC50 [1] [nM] | IC50 [2] [nM] | IC50 (KRAS G12C-BRAF complex) [nM] | IC50 [5] [nM] | conjugation with GSH [3] | half-life [3] [h] | Compound | T1/2(hour) in GSH ([3]; 5 mM GSH, 37° C., 100 mM potassium phosphate buffer pH 7.4, up to 6 h) | Remaining at 6 hr in GSH (%) ([3]; 5 mM GSH, 37° C., pH 7.4, 6 hr) | Clearance Category [4] | CL_hep (Human) [4] [mL/min/kg]
5 | > 10000 | > 10000 | 17 | > 10000 | formed conjugation with GSH | 8.9 | CC(C)[C@@H](C(=O)N[C@H]1Cc2cc(O)cc(c2)-c2ccc3c(C(C)(C)C#N)cn(c3c2)CC(C)(C)COC(=O)[C@@H]2CCCN(N2)C1=O)N1CCC2(CN(C(=O)CCl)C2)C1=O [RM44, reference compound] |  |  | medium (16.24>CL_hep (mL/min/kg)>6.96 is medium clearance) | 14.7
6 | > 10000 | > 10000 | > 10000 | > 10000 | formed conjugation with GSH | 4.3 | CC(C)[C@@H](C(=O)N[C@H]1Cc2cc(O)cc(c2)-c2ccc3c(C(C)(C)C#N)cn(c3c2)CC(C)(C)COC(=O)[C@@H]2CCCN(N2)C1=O)N1CCCC2(CCN(C(=O)CCl)C2)C1=O (stereo partly drawn) [RM351, reference compound] |  |  |  | 
